Measured values taken from EPA's ToxRefDB 2.

Columns and labels:
dog [1] = details: Chronic toxicity, beagle, Oral, Capsule, dose end: 40 week, group: systemic
mouse [2] = details: Combined chronic toxicity/carcinogenicity; other; Oral; Gavage/Intubation; dose end: 10 month; group: systemic; systemic / pathology microscopic / liver / neoplastic nodule + systemic / pathology microscopic / liver / dysplasia
rat [3] = details: Sub-acute repeat dose toxicity, wistar, Oral, Gavage/Intubation, dose end: 28 day
rat [4] = details: Sub-acute repeat dose toxicity, other, Oral, Gavage/Intubation, dose end: 30 day
rat [5] = details: Chronic toxicity, sprague dawley, Oral, Gavage/Intubation, dose end: 39 week, group: systemic
dog [6] = details: Subchronic oral toxicity in nonrodent, beagle, Gavage/Intubation, dose end: 6 week, group: systemic
rat [7] = details: Subchronic oral toxicity in rodents, sprague dawley, Gavage/Intubation, dose end: 6 week, group: systemic
mouse [8] = details: Subchronic oral toxicity in rodents, b6c3f1, Feed, dose end: 13 week, group: systemic, systemic / in life observation / body weight / body weight
rat [9] = details: Subchronic oral toxicity in rodents, fischer, Feed, dose end: 13 week, group: systemic
mouse [10] = details: Carcinogenicity, b6c3f1, Oral, Feed, dose end: 2 year, group: systemic
rat [11] = details: Combined chronic toxicity/carcinogenicity; fischer; Oral; Feed; dose end: 2 year; group: systemic; systemic / pathology microscopic / liver / degeneration + systemic / pathology microscopic / liver / hyperplasia + systemic / pathology …
rat [12] = details: Subchronic oral toxicity in rodents, wistar, Feed, dose end: 90 day, group: systemic, systemic / hematology / erythrocyte (rbc) count differential / erythrocyte (rbc) + systemic / hematology / hematocrit (hct) / hematocrit (…
dog [13] = details: Chronic toxicity, beagle, Oral, Capsule, dose end: 52 week, group: systemic
rat [14] = details: Combined chronic toxicity/carcinogenicity, wistar, Oral, Feed, dose end: 104 week, group: systemic
rat [15] = details: Prenatal developmental toxicity study, wistar, Oral, Gavage/Intubation, dose end: 16 GD
dog [16] = details: Subchronic oral toxicity in nonrodent, beagle, Capsule, dose end: 90 day, group: systemic
hamster [17] = details: Subchronic oral toxicity in rodents, golden syrian, Feed, dose end: 90 day, group: systemic, systemic / clinical chemistry / cholesterol / cholesterol + systemic / clinical chemistry / creatinine / creatinine + systemic / clinical …
hamster [18] = details: Carcinogenicity, golden syrian, Oral, Feed, dose end: 80 week, group: systemic
rabbit = details: Prenatal developmental toxicity study; new zealand white; Oral; Gavage/Intubation; dose end: 19 GD; group: maternal; reproductive / reproductive performance / aborted / aborted + reproductive / reproductive performance / resorptions / resorptions + systemic…
hamster [19] = details: Subchronic oral toxicity in rodents, golden syrian, Feed, dose end: 13 week, group: systemic
rat [20] = details: Prenatal developmental toxicity study, wistar, Oral, Gavage/Intubation, dose end: 16 GD; remark: listed apart in the source
[21] = systemic / in life observation / body weight / body weight gain + systemic / pathology gross / liver / fat vacuolation + systemic / …
[22] = systemic / pathology microscopic / blood / [other] + systemic / clinical chemistry / alanine aminotransferase (alt/sgpt) / alanine …
[23] = group: maternal, reproductive / reproductive performance / estrous cycle / abnormal
[24] = group: systemic, systemic / clinical chemistry / albumin / albumin + systemic / clinical chemistry / cholesterol / cholesterol + systemic / clinical …
[25] = group: systemic, systemic / clinical chemistry / cholesterol / cholesterol + systemic / clinical chemistry / thyroid stimulating hormone (thyrotropin) (tsh…
[26] = group: maternal, reproductive / reproductive performance / estrous cycle / abnormal + reproductive / reproductive performance / estrous cycle / length
[27] = group: maternal, reproductive / reproductive performance / estrous cycle / length
[28] = group: systemic, systemic / clinical chemistry / follicle stimulating hormone (fsh) / follicle stimulating hormone (fsh) + systemic / in life observation / …
[29] = group: systemic, systemic / organ weight / adrenal gland / relative to body weight + systemic / organ weight / ovary / relative to body weight + systemic / …
[30] = systemic / organ weight / [other] / absolute + systemic / organ weight / [other] / relative to body weight + systemic / pathology gross / …
[31] = systemic / in life observation / clinical signs / feces, discoloration + systemic / in life observation / clinical signs / salivation + …
[32] = systemic / in life observation / clinical signs / salivation + systemic / organ weight / epididymis / absolute + systemic / organ weight / …
[33] = systemic / clinical chemistry / bilirubin / total bilirubin + systemic / hematology / neutrophils / neutrophils + systemic / in life …
[34] = systemic / in life observation / body weight / body weight + systemic / in life observation / body weight / body weight gain + systemic / in…
[35] = systemic / in life observation / body weight / body weight
[36] = systemic / in life observation / body weight / body weight + systemic / in life observation / food consumption / food consumption + systemic…
[37] = systemic / pathology microscopic / liver / necrosis
[38] = systemic / pathology microscopic / liver / necrosis + systemic / pathology microscopic / liver / adenoma/carcinoma combined + systemic / …
[39] = systemic / clinical chemistry / alanine aminotransferase (alt/sgpt) / alanine aminotransferase (alt/sgpt) + systemic / organ weight / liver…
[40] = systemic / in life observation / body weight / body weight gain + systemic / in life observation / food consumption / food consumption + …
[41] = group: developmental, developmental / developmental malformation / bone / bipartite ossification + developmental / developmental malformation / bone / delayed …
[42] = group: maternal, systemic / in life observation / food consumption / food consumption + systemic / in life observation / mortality / mortality + reproductive…
[43] = systemic / clinical chemistry / aminopyrine-n-demethylase / aminopyrine-n-demethylase
[44] = systemic / pathology microscopic / liver / adenoma + systemic / pathology microscopic / liver / hemangioma + systemic / pathology …
[45] = systemic / pathology microscopic / ovary / sex cord stromal tumor, benign
[46] = systemic / in life observation / body weight / body weight gain + systemic / organ weight / liver / absolute + systemic / clinical chemistry…
[47] = group: developmental, developmental / developmental malformation / bone / incomplete ossification + developmental / developmental malformation / bone / [other] + …
[48] = group: maternal, systemic / in life observation / body weight / body weight + systemic / in life observation / food consumption / food consumption + systemic…

Structure (SMILES): C[C@]12CCC(=O)C=C1CC[C@@H]1[C@@H]2CC[C@@]2(C)[C@H]1CC[C@]2(C)O [17-Methyltestosterone]
- LOAEL (dog [1]; [21]): > 6 mg/kg/day
- NOAEL (dog [1]; [21]): ≥ 6 mg/kg/day
- LEL (dog [1]; [22]): 2 mg/kg/day
- NEL (dog [1]; [22]): < 2 mg/kg/day
- LEL (mouse [2]): 5 mg/kg/day
- LOAEL (mouse [2]): > 5 mg/kg/day
- NEL (mouse [2]): < 5 mg/kg/day
- NOAEL (mouse [2]): ≥ 5 mg/kg/day
- LEL (rat [3]; [23]): 100 mg/kg/day
- LOAEL (rat [3]; [23]): > 600 mg/kg/day
- NEL (rat [3]; [23]): 10 mg/kg/day
- NOAEL (rat [3]; [23]): ≥ 600 mg/kg/day
- LOAEL (rat [3]; [24]): > 200 mg/kg/day
- NOAEL (rat [3]; [24]): ≥ 200 mg/kg/day
- LEL (rat [3]; [25]): 10 mg/kg/day
- NEL (rat [3]; [25]): < 10 mg/kg/day
- LOAEL (rat [4]; [26]): > 80 mg/kg/day
- NOAEL (rat [4]; [26]): ≥ 80 mg/kg/day
- LEL (rat [4]; [27]): 5 mg/kg/day
- NEL (rat [4]; [27]): < 5 mg/kg/day
- LOAEL (rat [4]; [28]): > 80 mg/kg/day
- NOAEL (rat [4]; [28]): ≥ 80 mg/kg/day
- LEL (rat [4]; [29]): 5 mg/kg/day
- NEL (rat [4]; [29]): < 5 mg/kg/day
- LOAEL (rat [5]; [30]): > 40 mg/kg/day
- NEL (rat [5]; [30]): 2 mg/kg/day
- NOAEL (rat [5]; [30]): ≥ 40 mg/kg/day
- LEL (rat [5]; systemic / pathology gross / testes / reduced size + systemic / in life observation / body weight / body weight gain + systemic / in life …): 10 mg/kg/day

Structure (SMILES): N#Cc1ccc(N(CC(N)=O)CC(F)(F)F)cc1C(F)(F)F
- LOAEL (dog [6]; [31]): > 3 mg/kg/day
- NOAEL (dog [6]; [31]): ≥ 3 mg/kg/day
- LEL (dog [6]; [32]): 0.3 mg/kg/day
- NEL (dog [6]; [32]): < 0.3 mg/kg/day
- LOAEL (rat [7]; [33]): > 30 mg/kg/day
- NOAEL (rat [7]; [33]): ≥ 30 mg/kg/day
- LEL (rat [7]; [34]): 1 mg/kg/day
- NEL (rat [7]; [34]): < 1 mg/kg/day

Structure (SMILES): O=C(O)C1C(C(=O)O)C2(Cl)C(Cl)=C(Cl)C1(Cl)C2(Cl)Cl (stereo not drawn) [Chlorendic acid]
- LEL (mouse [8]): 188 mg/kg/day
- LOAEL (mouse [8]): 188 mg/kg/day
- NEL (mouse [8]): < 188 mg/kg/day
- NOAEL (mouse [8]): < 188 mg/kg/day
- LEL (rat [9]; [35]): 63 mg/kg/day
- LOAEL (rat [9]; [35]): 63 mg/kg/day
- NEL (rat [9]; [36]): 31 mg/kg/day
- NOAEL (rat [9]; [36]): 31 mg/kg/day
- LOAEL (mouse [10]; [37]): 89 mg/kg/day
- NOAEL (mouse [10]; [37]): < 89 mg/kg/day
- LEL (mouse [10]; [38]): 89 mg/kg/day
- NEL (mouse [10]; [38]): < 89 mg/kg/day
- LEL (rat [11]): 27 mg/kg/day
- LOAEL (rat [11]): 27 mg/kg/day
- NEL (rat [11]): < 27 mg/kg/day
- NOAEL (rat [11]): < 27 mg/kg/day

Structure (SMILES): CCO/N=C(\CC)C1=C(O)CC(c2c(C)cc(C)cc2C)CC1=O (stereo not drawn) [Tralkoxydim]
- LEL (rat [12]): 205 mg/kg/day
- LOAEL (rat [12]): 205 mg/kg/day
- NEL (rat [12]): 20.5 mg/kg/day
- NOAEL (rat [12]): 20.5 mg/kg/day
- LEL (dog [13]; [39]): 5 mg/kg/day
- LOAEL (dog [13]; [39]): 5 mg/kg/day
- NOAEL (dog [13]; [39]): 0.5 mg/kg/day
- NEL (dog [13]; systemic / clinical chemistry / cholesterol / cholesterol + systemic / clinical chemistry / protein / protein + systemic / clinical …): 0.5 mg/kg/day
- LOAEL (rat [14]; [40]): 118 mg/kg/day
- NEL (rat [14]; [40]): 2.3 mg/kg/day
- NOAEL (rat [14]; [40]): 23.1 mg/kg/day
- LEL (rat [14]; systemic / pathology microscopic / pituitary gland / adenoma): 23.1 mg/kg/day
- LOAEL (rat [15]; [41]): 30 mg/kg/day
- NEL (rat [15]; [41]): 1 mg/kg/day
- NOAEL (rat [15]; [41]): 3 mg/kg/day
- LEL (rat [15]; group: developmental, developmental / developmental malformation / bone / delayed ossification): 3 mg/kg/day
- LOAEL (rat [15]; group: maternal, systemic / in life observation / food consumption / food consumption + systemic / in life observation / mortality / mortality): 200 mg/kg/day
- LEL (rat [15]; [42]): 200 mg/kg/day
- NEL (rat [15]; [42]): 30 mg/kg/day
- NOAEL (rat [15]; [42]): 30 mg/kg/day
- LEL (dog [16]; [43]): 0.5 mg/kg/day
- LOAEL (dog [16]; [43]): 5 mg/kg/day
- NEL (dog [16]; [43]): < 0.5 mg/kg/day
- NOAEL (dog [16]; systemic / clinical chemistry / aminopyrine-n-demethylase / aminopyrine-n-demethylase + systemic / clinical chemistry / albumin / albumin + …): 0.5 mg/kg/day
- LEL (hamster [17]): 337 mg/kg/day
- LOAEL (hamster [17]): 337 mg/kg/day
- NEL (hamster [17]): 41 mg/kg/day
- NOAEL (hamster [17]): 41 mg/kg/day
- LOAEL (hamster [18]; [44]): > 672 mg/kg/day
- NOAEL (hamster [18]; [44]): ≥ 672 mg/kg/day
- LEL (hamster [18]; [45]): 27.8 mg/kg/day
- NEL (hamster [18]; [45]): < 27.8 mg/kg/day
- LEL (rabbit): 100 mg/kg/day
- LOAEL (rabbit): 100 mg/kg/day
- NEL (rabbit): 20 mg/kg/day
- NOAEL (rabbit): 20 mg/kg/day
- LOAEL (hamster [19]; systemic / in life observation / body weight / body weight gain + systemic / organ weight / liver / absolute): 650 mg/kg/day
- NEL (hamster [19]; [46]): 122 mg/kg/day
- NOAEL (hamster [19]; [46]): 328 mg/kg/day
- LEL (hamster [19]; systemic / pathology microscopic / liver / proliferation): 328 mg/kg/day
- LOAEL (rat [20]; group: developmental, developmental / developmental malformation / bone / incomplete ossification): 30 mg/kg/day
- LEL (rat [20]; group: developmental, developmental / developmental malformation / bone / incomplete ossification + developmental / developmental malformation / bone / [other]): 30 mg/kg/day
- NEL (rat [20]; [47]): 3 mg/kg/day
- NOAEL (rat [20]; [47]): 3 mg/kg/day
- LEL (rat [20]; [48]): 200 mg/kg/day
- LOAEL (rat [20]; [48]): 200 mg/kg/day
